System: glomus cell-like cells
Assay: ATP production by glomus cell-like cells in response to hypoxic stimulation with ion channel inhibitors
Type: cell-based, human
Conditions: for effect on ATP production in response to hypoxic stimulation: 2% O2, 10 to 30 minutes, vs KRB without inhibitor
Experimental: Glomus cell-like cells on days 16 to 19 of induction were used. With Krebs-Ringer buffer (KRB: 120 mM of NaCl, 5 mM of KCI, 25 mM of NaHCO3, 2.5 mM of CaCI2, 1.1 mM of MgCl2, 0.1% bovine serum albumin, 2.8 mM of glucose, pH 7.2), glomus cell-like cells were washed twice. After adding KRB, the cells were incubated in a hypoxic CO2 incubator (2% O2) for 10 to 30 minutes. The supernatant was collected, and then ATP was measured using the ATP Determination Kit (Thermo Fisher Scientific: A22066). Cells were lysed in RIPA buffer (FUJIFILM Wako Pure Chemical Corporation: 182-02451), and the total protein content was determined using a Pierce™ BCA Protein Assay Kit (Thermo Fisher Scientific: 23225). ATP measurement results were corrected according to the total protein content.
Using KRB containing the K^+ channel inhibitor tetraethylammonium chloride (FUJIFILM Wako Pure Chemical Corporation: 206-04501) (final concentration: 5 mM), the Ca^2+ channel inhibitor nifedipine (FUJIFILM Wako Pure Chemical Corporation: 141-05783) (final concentration: 5 μM), or the Na^+ channel inhibitor lidocaine (FUJIFILM Wako Pure Chemical Corporation: 120-02691) (final concentration: 1 μM), cells were subjected to hypoxic stimulation using the procedure described in (3-1) above, and the amount of ATP production was analyzed. KRB without ion channel inhibitors was used as a control to analyze ATP production similarly.

## CCN(CC)CC(=O)Nc1c(C)cccc1C [lidocaine, Lidocaine]
Lidocaine 1 μM in KRB
  effect on ATP production in response to hypoxic stimulation: inhibitory effect

## CC[N+](CC)(CC)CC.[Cl-] [tetraethylammonium chloride]
Tetraethylammonium chloride 5 mM in KRB
  effect on ATP production in response to hypoxic stimulation: promoting effect

## apyrase
Apyrase (ATPase) 2 U/mL added, FIG. 11
  ATP detected after hypoxic stimulation: no ATP was detected

Reference: patent US20260167927A1, “GLOMUS CELL-LIKE CELLS AND PRODUCTION METHOD THEREOF” (NATIONAL INSTITUTE OF ADVANCED INDUSTRIAL SCIENCE AND …, priority 2022, published 2026)
